Laboratory results from patent US7829584B2, “Pyridines and pyridine N-oxides as modulators of thrombin” (Janssen Pharmaceutica NV, priority 2006, dated 2010).

These compounds were tested against T1, Human α-thrombin (Homo sapiens, UniProt P00734) (assay: In vitro inhibition of purified enzyme, kinetic analysis by chromogenic substrates (Thrombin assay)). Conditions: substrate SucAAPR pNA 100 uM, 37° C., pH 7.5, 405 nm, thrombin 1.1 nM.
T1 construct: Human α-thrombin (Enzyme Research Laboratories HT1002a); purchased Enzyme Research Laboratories (South Bend, Ind.) HT1002a
Format: biochemical
Description: In Vitro Inhibition of Purified Enzyme
Reagents: All buffer salts were obtained from Sigma Chemical Company (St. Louis, Mo.), and were of the highest purity available.
Human α-thrombin, was obtained from Enzyme Research Laboratories (South Bend, Ind.).
Kinetic Analysis by Chromogenic Substrates
Compounds were assessed for their inhibitory activity toward Thrombin by kinetic analysis using para-nitroaniline chromogenic substrates monitored at 405 nm. The assay buffer employed was 50 mM HEPES, pH 7.5, 200 mM NaCl, and fresh 0.05% n-octyl β-d-glucopyranoside. DMSO was present at a final concentration of 4%, derived from the substrate and inhibitory compound stock solutions. […] Reactions were initiated by addition of 10 μL protease, and increase in absorbance due to proteolytic cleavage of substrate was kinetically monitored at 37° C., 405 nm with a Molecular Devices Spectramax 340 plate reader. Initial velocities were determined by analysis of the initial linear portion of the reactions. Plots of vo/vi vs. inhibitor concentration, where vo=velocity without inhibitor, and vi=inhibited velocity, were fit to a linear regression line, and IC50 was determined from the reciprocal of the slope. Ki was calculated from IC50 using the Ki factor specific for the assay as: Ki=IC50×Ki factor, or Ki=IC50×(1/(1+[S]/Km)), where S is the substrate concentration in the assay, and Km is the Michaelis constant for the substrate (Cheng Y and Prusoff W H (1973) Biochem Pharmacol 22: 3099-3108).
The Thrombin assay incorporated substrate SucAAPR pNA (Bachem L-1720, [S]=100 uM final, Km=320 μM, Ki factor=0.76). Substrate in DMSO (10.7 mM) was diluted in assay buffer 100-fold for 100 μM final. Human α-thrombin (Enzyme Research Laboratories HT1002a) was diluted 1500-fold in assay buffer for a final assay concentration of 1.1 nM.
N#Cc1ccc(NCC(F)(F)c2ccccc2)[n+]([O-])c1CC(=O)NCCONC(=N)N [Cpd 1, 3-cyano-6-(2,2-difluoro-2-phenyl-ethylamino)-2-{2-[(aminoiminomethyl)aminooxy]ethyl}aminocarbonylmethyl-pyridine 1-oxide] gave an IC50 of roughly 0.13 nM.
With N=C(N)NOCCNC(=O)Cc1c(Cl)ccc(NCC(F)(F)c2ccccc2)[n+]1[O-] [Cpd 2, 3-chloro-6-(2,2-difluoro-2-phenyl-ethylamino)-2-{2-[(aminoiminomethyl)aminooxy]ethyl}aminocarbonylmethyl-pyridine 1-oxide] the IC50 was roughly 0.54 nM.
N#Cc1ccc(NCC(F)(F)c2ccccn2)[n+]([O-])c1CC(=O)NCc1ccc2onc(N)c2c1 [Cpd 3, 3-cyano-6-(2,2-difluoro-2-pyridin-2-yl-ethylamino)-2-(3-Amino-benzo[d]isoxazol-5-ylmethyl)aminocarbonylmethyl-pyridine 1-oxide] showed an IC50 of roughly 280 nM.
N#Cc1ccc(NCC(F)(F)c2ccccn2)[n+]([O-])c1CC(=O)NCc1ccc2c(N)noc2c1 [Cpd 4, 3-cyano-6-(2,2-difluoro-2-pyridin-2-yl-ethylamino)-2-(3-amino-benzo[d]isoxazol-6-ylmethyl)aminocarbonylmethyl-pyridine 1-oxide] gave an IC50 of roughly 6.1 nM.
For N#Cc1ccc(NCC(F)(F)c2ccccn2)[n+]([O-])c1CC(=O)NCc1ccc2ccnc(N)c2c1 [Cpd 5, 3-cyano-6-(2,2-difluoro-2-pyridin-2-yl-ethylamino)-2-(1-Amino-isoquinolin-7-ylmethyl)aminocarbonylmethyl-pyridine 1-oxide], the IC50 was roughly 42 nM.
N#Cc1ccc(NCC(F)(F)c2ccccn2)[n+]([O-])c1CC(=O)NCc1cnccc1-n1cncn1 [Cpd 6, 3-cyano-6-(2,2-difluoro-2-pyridin-2-yl-ethylamino)-2-(4-[1,2,4]triazol-1-yl-pyridin-3-ylmethyl)aminocarbonylmethyl-pyridine 1-oxide] gave an IC50 of roughly 3.3 nM.
N#Cc1ccc(NCC(F)(F)c2ccccn2)[n+]([O-])c1CC(=O)NCc1c(F)cccc1-n1cncn1 [Cpd 7, 3-cyano-6-(2,2-difluoro-2-pyridin-2-yl-ethylamino)-2-(2-[1,2,4]triazol-1-yl-6-fluoro-phenylmethyl)aminocarbonylmethyl-pyridine 1-oxide] was tested, and the IC50 was roughly 0.44 nM.
With N#Cc1ccc(NCC(F)(F)c2ccc(F)cc2)[n+]([O-])c1CC(=O)NCc1cnccc1-n1cncn1 [Cpd 8, 3-cyano-6-(2,2-difluoro-2-(4-fluoro-phenyl)-ethylamino)-2-(4-[1,2,4]triazol-1-yl-pyridin-3-ylmethyl)aminocarbonylmethyl-pyridine 1-oxide] the IC50 was roughly 3.4 nM.
N#Cc1ccc(NCC(F)(F)c2ncccn2)[n+]([O-])c1CC(=O)NCc1cnccc1-n1cncn1 [Cpd 9, 3-cyano-6-(2,2-difluoro-2-pyrimidin-2-yl-ethylamino)-2-(4-[1,2,4]triazol-1-yl-pyridin-3-ylmethyl)aminocarbonylmethyl-pyridine 1-oxide] was tested, and the IC50 was roughly 200 nM.
Work on N#Cc1ccc(NCC(F)(F)c2ccccn2)[n+]([O-])c1CC(=O)NCc1cccnc1-n1cncn1 [Cpd 10, 3-cyano-6-(2,2-difluoro-2-pyridin-2-yl-ethylamino)-2-(2-[1,2,4]triazol-1-yl-pyridin-3-ylmethyl)aminocarbonylmethyl-pyridine 1-oxide] yielded an IC50 of roughly 170 nM.
With N=C(N)NOCCNC(=O)Cc1nc(NCC(F)(F)c2ccccc2)ccc1Cl [Cpd 11, N-{2-[(aminoiminomethyl)aminooxy]ethyl}-2-[3-chloro-6-(2,2-difluoro-2-phenyl-ethylamino)-pyridin-2-yl]-acetamide] the IC50 was roughly 370 nM.
Work on N#Cc1ccc(NCC(F)(F)c2ccccn2)[n+]([O-])c1CC(=O)NCc1cncc(Cl)c1 [Cpd 12, 3-cyano-6-(2,2-difluoro-2-pyridin-2-yl-ethylamino)-2-(5-chloro-pyridin-3-ylmethyl)aminocarbonylmethyl-pyridine 1-oxide] yielded an IC50 of roughly 66 nM.
